The results in this text go back to patent US20070049593A1 (priority 2004, published 2007).

What is called IC50 is the point on the concentration scale where inhibition reaches its midpoint.

Where a name gives a salt, the structure may show the parent alone.

In the experiment the target is T1, HCV polymerase (Hepatitis C virus genotype 1b, UniProt P26663).
T1 construct: a region encoding NS5B (J Virol 1991 March, 65(3), 1105-13, 544 amino acids after deletion of 47 amino acids on the C-terminal); 6xHis (C); made in house; host or cells: Escherichia coli
T1 sequence (P26663 2420-2963): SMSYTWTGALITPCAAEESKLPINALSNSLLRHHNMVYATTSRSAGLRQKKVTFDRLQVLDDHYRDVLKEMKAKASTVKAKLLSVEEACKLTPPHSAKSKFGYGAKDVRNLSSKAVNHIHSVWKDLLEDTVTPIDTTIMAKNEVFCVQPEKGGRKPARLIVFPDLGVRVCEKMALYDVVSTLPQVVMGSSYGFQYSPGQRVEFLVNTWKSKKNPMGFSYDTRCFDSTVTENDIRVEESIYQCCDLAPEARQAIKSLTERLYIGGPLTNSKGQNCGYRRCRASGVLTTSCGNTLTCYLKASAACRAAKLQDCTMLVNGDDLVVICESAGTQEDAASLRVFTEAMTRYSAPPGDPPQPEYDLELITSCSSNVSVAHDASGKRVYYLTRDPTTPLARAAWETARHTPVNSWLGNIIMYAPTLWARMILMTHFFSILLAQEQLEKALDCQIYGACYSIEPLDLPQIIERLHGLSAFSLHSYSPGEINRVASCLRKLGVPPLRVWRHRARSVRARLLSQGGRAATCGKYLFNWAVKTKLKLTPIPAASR
Briefly: biochemical. Details: species or system HCV BK strain. In short, it runs like this: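 Recombinant HCV BK-strain NS5B (C-terminal 47 aa deleted, His6-tagged, E. coli), 0.5 μg/ml, run with 5 μg/ml in vitro-transcribed RNA template (polyU/3′X), ATP/GTP/CTP 50 μM, UTP 2 μM plus [3H]UTP, pH 7.5, 25° C, 90 min. TCA-precipitated RNA counted by scintillation; IC50 from activity with vs without compound.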

`CC1CCN(C(=O)CN2CCn3c(c(C4CCCCC4)c4ccc(C(=O)O)cc43)-c3ccccc32)CC1` [Example 1-72, 13-cyclohexyl-5-[2-(4-methylpiperidin-1-yl)-2-oxoethyl]-6,7-dihydro-5H-benzo[5,6][1,4]diazepino[7,1-a]indole-10-carboxylic acid monohydrochloride] showed an IC50 of less than 100 nM.

For `COC(=O)c1cc2[nH]c(C(C)(C)NC(=O)c3ccc4c(C5CCCCC5)c5n(c4c3)CCOc3ccccc3-5)nc2cc1C` [Example 2-282, methyl 2-{1-[(12-cyclohexyl-6,7-dihydro-5-oxa-7a-azadibenzo[a,e]azulene-9-carbonyl)amino]-1-methylethyl}-6-methyl-3H-benzimidazole-5-carboxylate], the half-inhibitory concentration (IC50) was less than 100 nM.

Turning to `O=C(O)c1ccc2c(C3CCCCC3)c3n(c2c1)CCN(CCN1CCCCC1)c1ncccc1-3` [Example 1-549, 12-cyclohexyl-5-[2-(piperidin-1-yl)ethyl]-6,7-dihydro-5H-4,5,7a-triazadibenzo[a,e]azulene-9-carboxylic acid dihydrochloride], the half-inhibitory concentration (IC50) is less than 100 nM.

Turning to `CC(=O)N1CCC(NC(=O)c2ccc3c(C4CCCCC4)c4n(c3c2)CCOc2ccccc2-4)(C(=O)Nc2ccc(/C=C/C(=O)O)cc2)CC1` [Example 2-222, (E)-3-[4-({1-acetyl-4-[(12-cyclohexyl-6,7-dihydro-5-oxa-7a-azadibenzo[a,e]azulene-9-carbonyl)amino]piperidine-4-carbonyl}amino)phenyl]acrylic acid], the IC50 is less than 100 nM.

In turn, `CS(=O)(=O)c1ccc(N2CCOCC2)c(COc2ccc3c(c2)OCCn2c-3c(C3CCCCC3)c3ccc(C(=O)O)cc32)c1` [Example 2-12, 12-cyclohexyl-3-[5-methanesulfonyl-2-(morpholin-4-yl)benzyloxy]-6,7-dihydro-5-oxa-7a-azadibenzo[a,e]azulene-9-carboxylic acid monohydrochloride] came in with an IC50 of less than 100 nM.

`CC1CCCCN1CCCN1CCn2c(c(C3CCCCC3)c3ccc(C(=O)O)cc32)-c2ccc(Cl)cc21` (stereo not shown) [Example 1-322, 3-chloro-13-cyclohexyl-5-[3-(2-methylpiperidin-1-yl)propyl]-6,7-dihydro-5H-benzo[5,6][1,4]diazepino[7,1-a]indole-10-carboxylic acid] returned an IC50 of less than 100 nM.

For the compound `COC(=O)[C@H](Cc1ccc(NC(=O)N(C)C)cc1)NC(=O)c1ccc2c(C3CCCCC3)c3n(c2c1)CCOc1cc(OC)ccc1-3` [Example 2-391, methyl (S)-2-[(12-cyclohexyl-3-methoxy-6,7-dihydro-5-oxa-7a-azadibenzo[a,e]azulene-9-carbonyl)amino]-3-[4-(3,3-dimethylureido)phenyl]propionate], the IC50 is less than 100 nM.

Compound `COCCOC[C@@H]1CCCN(CCN2CCn3c(c(C4CCCCC4)c4ccc(C(=O)O)cc43)-c3ccc(C)cc32)C1` [Example 1-528, 13-cyclohexyl-5-{2-[(R)-3-(2-methoxyethoxymethyl)piperidin-1-yl]ethyl}-3-methyl-6,7-dihydro-5H-benzo[5,6][1,4]diazepino[7,1-a]indole-10-carboxylic acid dihydrochloride] registered a half-inhibitory concentration (IC50) of less than 100 nM.

As to `CS(=O)(=O)N1CCCC(Oc2ccc3c(c2)OCCn2c-3c(C3CCCCC3)c3ccc(C(=O)O)cc32)C1` (stereo not shown) [Example 2-44, 12-cyclohexyl-3-(1-methanesulfonylpiperidin-3-yloxy)-6,7-dihydro-5-oxa-7a-azadibenzo[a,e]azulene-9-carboxylic acid], the half-inhibitory concentration (IC50) was less than 100 nM.

As for `COCC1CCCCN(CCN2CCn3c(c(C4CCCCC4)c4ccc(C(=O)O)cc43)-c3ccc(C)cc32)C1` (stereo not shown) [Example 1-551, 13-cyclohexyl-5-[2-(3-methoxymethylazepan-1-yl)ethyl]-3-methyl-6,7-dihydro-5H-benzo[5,6][1,4]diazepino[7,1-a]indole-10-carboxylic acid dihydrochloride], the IC50 was less than 100 nM.

As for `Cc1ccc2c(c1)N(CC(=O)N1CCCCC1)CCn1c-2c(C2CCCCC2)c2ccc(C(=O)O)cc21` [Example 1-115, 13-cyclohexyl-3-methyl-5-[2-oxo-2-(piperidin-1-yl)ethyl]-6,7-dihydro-5H-benzo[5,6][1,4]diazepino[7,1-a]indole-10-carboxylic acid monohydrochloride], the IC50 is less than 100 nM.

`CCN(CCCOC)CCCN1CCn2c(c(C3CCCCC3)c3ccc(C(=O)O)cc32)-c2ccc(Cl)cc21` [Example 1-432, 3-chloro-13-cyclohexyl-5-{3-[N-ethyl-N-(3-methoxypropyl)amino]propyl}-6,7-dihydro-5H-benzo[5,6][1,4]diazepino[7,1-a]indole-10-carboxylic acid dihydrochloride]: the IC50 is less than 100 nM.

In turn, `CCOCC[C@@H]1CCCN(CCN2CCn3c(c(C4CCCCC4)c4ccc(C(=O)O)cc43)-c3ccc(OCC)cc32)C1` [Example 1-515, 13-cyclohexyl-3-ethoxy-5-{2-[(S)-3-(2-ethoxyethyl)piperidin-1-yl]ethyl}-6,7-dihydro-5H-benzo[5,6][1,4]diazepino[7,1-a]indole-10-carboxylic acid dihydrochloride] returned an IC50 of less than 100 nM.

Compound `Cc1ccc2c(c1)N(CCN1CCC[C@@H](C(C)(C)O)C1)CCn1c-2c(C2CCCCC2)c2ccc(C(=O)O)cc21` [Example 1-533, 13-cyclohexyl-5-{2-[(R)-3-(1-hydroxy-1-methylethyl)piperidin-1-yl]ethyl}-3-methyl-6,7-dihydro-5H-benzo[5,6][1,4]diazepino[7,1-a]indole-10-carboxylic acid dihydrochloride] displayed a half-maximal inhibitory concentration (IC50) of less than 100 nM.

Regarding `COCC(C)(NC(=O)c1ccc2c(C3CCCCC3)c3n(c2c1)CCOc1ccccc1-3)C(=O)O` (stereo not shown) [Example 2-154, 2-[(12-cyclohexyl-6,7-dihydro-5-oxa-7a-azadibenzo[a,e]azulene-9-carbonyl)amino]-3-methoxy-2-methylpropionic acid], the IC50 is 100 to 1000 nM.

Take `CC(C)(C)OC(=O)NC1CCN(C(=O)C(C)(C)NC(=O)c2ccc3c(C4CCCCC4)c4n(c3c2)CCOc2ccccc2-4)CC1` [Example 2-321, tert-butyl (1-{2-[(12-cyclohexyl-6,7-dihydro-5-oxa-7a-azadibenzo[a,e]azulene-9-carbonyl)amino]-2-methylpropionyl)piperidin-4-yl)carbamate]: the IC50 was less than 100 nM.

`CN(c1ccc(N2CCOCC2)c(COc2ccc3c(c2)OCCn2c-3c(C3CCCCC3)c3ccc(C(=O)O)cc32)c1)S(C)(=O)=O` [Example 2-19, 12-cyclohexyl-3-[5-(N-methanesulfonyl-N-methylamino)-2-(morpholin-4-yl)benzyloxy]-6,7-dihydro-5-oxa-7a-azadibenzo[a,e]azulene-9-carboxylic acid monohydrochloride] came in with an IC50 of less than 100 nM.

`COC(=O)[C@H](Cc1ccc(O)cc1)NC(=O)c1ccc2c(C3CCCCC3)c3n(c2c1)CCOc1ccccc1-3` [Example 2-175, methyl (S)-2-[(12-cyclohexyl-6,7-dihydro-5-oxa-7a-azadibenzo[a,e]azulene-9-carbonyl)amino]-3-(4-hydroxyphenyl)propionate] returned an IC50 of less than 100 nM.

`CN(C)Cc1ccc(NC(=O)C(C)(C)NC(=O)c2ccc3c(C4CCCCC4)c4n(c3c2)CCOc2ccccc2-4)cc1` [Example 2-213, N-[1-(4-dimethylaminomethylphenylcarbamoyl)-1-methylethyl]-12-cyclohexyl-6,7-dihydro-5-oxa-7a-azadibenzo[a,e]azulene-9-carboxamide] had an IC50 of less than 100 nM.

For the compound `COc1ccc2c(c1)OCCn1c-2c(C2CCCCC2)c2ccc(C(=O)NC(C)(C)c3nc4ccccc4[nH]3)cc21` [Example 2-408, N-[1-(1H-benzimidazol-2-yl)-1-methylethyl]-12-cyclohexyl-3-methoxy-6,7-dihydro-5-oxa-7a-azadibenzo[a,e]azulene-9-carboxamide], the IC50 is less than 100 nM.

`COc1ccc2c(c1)N(C(C)C)CCn1c-2c(C2CCCCC2)c2ccc(C(=O)NC3(C(=O)Nc4ccc(/C=C/C(=O)O)cc4)CCC3)cc21` [Example 1-478, (E)-3-[4-({1-[(13-cyclohexyl-5-isopropyl-3-methoxy-6,7-dihydro-5H-benzo[5,6][1,4]diazepino[7,1-a]indole-10-carbonyl)amino]cyclobutanecarbonyl}amino)phenyl]acrylic acid] yielded an IC50 of less than 100 nM.

Take `NC(=O)c1ccc2c(C3CCCCC3)c3n(c2c1)CCN(CCN1CCCCC1)c1cc(Cl)ccc1-3` [Example 1-180, 3-chloro-13-cyclohexyl-5-[2-(piperidin-1-yl)ethyl]-6,7-dihydro-5H-benzo[5,6][1,4]diazepino[7,1-a]indole-10-carboxamide dihydrochloride]: the IC50 is less than 100 nM.

The compound `CC1CCCN(C(=O)CN2CCn3c(c(C4CCCCC4)c4ccc(C(=O)O)cc43)-c3ccccc32)C1` (stereo not shown) [Example 1-122, 13-cyclohexyl-5-[2-(3-methylpiperidin-1-yl)-2-oxoethyl]-6,7-dihydro-5H-benzo[5,6][1,4]diazepino[7,1-a]indole-10-carboxylic acid monohydrochloride] yielded an IC50 of less than 100 nM.

`O=C(O)c1ccc2c(C3CCCCC3)c3n(c2c1)CCN(CCC1CCCN(C2CCCC2)C1)c1cc(Cl)ccc1-3` (stereo not shown) [Example 1-264, 3-chloro-13-cyclohexyl-5-[2-(1-cyclopentylpiperidin-3-yl)ethyl]-6,7-dihydro-5H-benzo[5,6][1,4]diazepino[7,1-a]indole-10-carboxylic acid dihydrochloride] yielded a concentration for half-maximal inhibition (IC50) of less than 100 nM.

The compound `COC(=O)[C@H](Cc1ccc(OCC(=O)O)cc1)NC(=O)c1ccc2c(C3CCCCC3)c3n(c2c1)CCOc1cc(OC)ccc1-3` [Example 2-378, methyl (S)-3-(4-carboxymethoxyphenyl)-2-[(12-cyclohexyl-3-methoxy-6,7-dihydro-5-oxa-7a-azadibenzo[a,e]azulene-9-carbonyl)amino]propionate] came in with an IC50 of less than 100 nM.
